According to US20240254119A1 (THIRD HARMONIC BIO, INC., priority 2022, published 2024):
pIC50: −log10 of the molar value.

Target: T1, wtKIT (Homo sapiens, UniProt P10721)
T1 construct: 1888289AM in the reaction mixtures
Experiment: Caliper biochemical assay, wtKIT
Conditions: Table 6, read-out: KIT Biochemical IC50 avg
Summary of the method: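 Mobility-shift read-out: after EDTA stop, fluorescent peptide substrate and product resolved electrophoretically on LabChip 3000. Reaction ran 3 h at 25° C with 400 μM ATP, Mn^2+ cofactor, 5.0 nM wtKIT, 1 μM FAM-peptide, pH 7.5 HEPES buffer; no-enzyme wells defined full inhibition.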

T1 sequence (P10721 26-976): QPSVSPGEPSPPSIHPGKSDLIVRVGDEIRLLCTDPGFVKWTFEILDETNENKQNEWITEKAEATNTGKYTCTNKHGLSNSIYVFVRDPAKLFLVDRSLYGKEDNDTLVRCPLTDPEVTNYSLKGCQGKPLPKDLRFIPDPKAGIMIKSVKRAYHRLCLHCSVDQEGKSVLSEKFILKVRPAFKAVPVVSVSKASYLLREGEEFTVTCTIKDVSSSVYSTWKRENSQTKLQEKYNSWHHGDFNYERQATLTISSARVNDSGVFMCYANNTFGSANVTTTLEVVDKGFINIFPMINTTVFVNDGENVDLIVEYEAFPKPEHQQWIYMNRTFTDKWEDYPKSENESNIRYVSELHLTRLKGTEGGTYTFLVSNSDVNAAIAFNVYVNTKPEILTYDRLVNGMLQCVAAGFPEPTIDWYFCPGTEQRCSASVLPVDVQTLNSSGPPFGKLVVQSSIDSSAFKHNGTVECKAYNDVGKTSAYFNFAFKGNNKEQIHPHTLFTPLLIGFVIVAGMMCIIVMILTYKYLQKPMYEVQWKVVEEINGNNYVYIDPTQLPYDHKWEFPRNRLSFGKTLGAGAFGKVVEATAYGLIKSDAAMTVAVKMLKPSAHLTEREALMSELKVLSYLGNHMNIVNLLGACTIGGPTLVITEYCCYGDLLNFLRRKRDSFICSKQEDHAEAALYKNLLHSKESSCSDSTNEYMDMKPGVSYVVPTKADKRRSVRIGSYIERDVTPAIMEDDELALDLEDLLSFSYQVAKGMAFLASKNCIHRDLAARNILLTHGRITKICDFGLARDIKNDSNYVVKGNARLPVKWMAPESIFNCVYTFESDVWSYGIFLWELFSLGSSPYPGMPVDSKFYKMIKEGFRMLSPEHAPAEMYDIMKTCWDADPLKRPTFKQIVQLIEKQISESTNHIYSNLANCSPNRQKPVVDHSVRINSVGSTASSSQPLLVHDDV

pIC50 | SMILES
≥ 7.30 | COC(=O)Cc1nc(-c2ccc(C)c(NC(=O)c3cnc4ccccn34)c2)no1 [Compound I-321]
≥ 7.30 | Cc1ccc(-c2noc(CC(=O)OCc3ccccc3)n2)cc1NC(=O)c1cnc2ccccn12 [Compound I-322]
≥ 7.30 | COC1(C(F)F)CC(c2nc(-c3ccc(C)c(NC(=O)c4cnc5ccccn45)c3)no2)C1 (stereo not shown) [Compound I-325]
≥ 7.30 | Cc1ccc(-c2noc(C3CCN3S(C)(=O)=O)n2)cc1NC(=O)c1cnc2ccccn12 (stereo not shown) [Compound I-331]
≥ 7.30 | Cc1ccc(-c2noc(C34COC(C)(C3)C4)n2)cc1NC(=O)c1cnc2ccccn12 [Compound I-344]
≥ 7.30 | Cc1ccc(-c2noc(C3CC(Oc4ccccc4)C3)n2)cc1NC(=O)c1cnc2ccccn12 (stereo not shown) [Compound I-347]
≥ 7.30 | Cc1ccc(-c2noc(C3CC(Oc4ccccc4)C3)n2)cc1NC(=O)c1cnc2ccccn12 (stereo not shown) [Compound I-348]
≥ 7.30 | Cc1ccc(-c2noc([C@H]3C[C@@H]3F)n2)cc1NC(=O)c1cnc2ccc(N3CCCC3)cn12 [Compound I-361]
≥ 7.30 | Cc1ccc(-c2noc([C@H]3C[C@@H]3F)n2)cc1NC(=O)c1cnc2cc(N3CCCC3)ccn12 [Compound I-365]
≥ 7.30 | COC12CC(c3nc(-c4ccc(C)c(NC(=O)c5cnc6ccccn56)c4)no3)(C1)C2 [Compound I-368]
≥ 7.30 | Cc1ccc(-c2noc([C@H]3C[C@@H]3F)n2)cc1NC(=O)c1cnc2cc(Br)ccn12 [Compound I-383]

Target: T2, CSF-1R (Homo sapiens, UniProt P07333)
T2 construct: purchased Invitrogen PV3249 (lot 662393N)
Experiment: Caliper biochemical assay, CSF-1R
Conditions: Table 6
Protocol: (§1) Enzyme, substrate, and cofactors (ATP and Mn^2+) are combined in a well of a microtiter plate and incubated for 3 hours at 25° C. At the end of the incubation, the reaction is quenched by the addition of an EDTA-containing buffer. Substrate and product are separated electrophoretically using the microfluidic-based LabChip 3000 Drug Discovery System from Caliper Life Sciences* and quantitated by fluorescence intensity.
(§2) The substrate used in the CSF-1R and PDGFRα assay is FAM-[…]-CONH2 (FAM is carboxyfluorescein). Peptide should be >95% purity. The substrate for the KIT assay is FAM-[…]-NH2.
(§3) • 1. To a well of a 384-well plate add 5 μL of 2× enzyme buffer (or control) • 2. Add 100 nL of 100× compound. • 3. Add 5 μL of 2× substrate buffer. • 4. Incubate plate at 25° C. for 3 hours. • 5. Add 10 uL of […]. • 6. Read plate LabChip 3000 Drug Discovery System
(§4) • 3 hours at 25° C. where 100% Inhibitor: No enzyme.

T2 sequence (P07333 20-972): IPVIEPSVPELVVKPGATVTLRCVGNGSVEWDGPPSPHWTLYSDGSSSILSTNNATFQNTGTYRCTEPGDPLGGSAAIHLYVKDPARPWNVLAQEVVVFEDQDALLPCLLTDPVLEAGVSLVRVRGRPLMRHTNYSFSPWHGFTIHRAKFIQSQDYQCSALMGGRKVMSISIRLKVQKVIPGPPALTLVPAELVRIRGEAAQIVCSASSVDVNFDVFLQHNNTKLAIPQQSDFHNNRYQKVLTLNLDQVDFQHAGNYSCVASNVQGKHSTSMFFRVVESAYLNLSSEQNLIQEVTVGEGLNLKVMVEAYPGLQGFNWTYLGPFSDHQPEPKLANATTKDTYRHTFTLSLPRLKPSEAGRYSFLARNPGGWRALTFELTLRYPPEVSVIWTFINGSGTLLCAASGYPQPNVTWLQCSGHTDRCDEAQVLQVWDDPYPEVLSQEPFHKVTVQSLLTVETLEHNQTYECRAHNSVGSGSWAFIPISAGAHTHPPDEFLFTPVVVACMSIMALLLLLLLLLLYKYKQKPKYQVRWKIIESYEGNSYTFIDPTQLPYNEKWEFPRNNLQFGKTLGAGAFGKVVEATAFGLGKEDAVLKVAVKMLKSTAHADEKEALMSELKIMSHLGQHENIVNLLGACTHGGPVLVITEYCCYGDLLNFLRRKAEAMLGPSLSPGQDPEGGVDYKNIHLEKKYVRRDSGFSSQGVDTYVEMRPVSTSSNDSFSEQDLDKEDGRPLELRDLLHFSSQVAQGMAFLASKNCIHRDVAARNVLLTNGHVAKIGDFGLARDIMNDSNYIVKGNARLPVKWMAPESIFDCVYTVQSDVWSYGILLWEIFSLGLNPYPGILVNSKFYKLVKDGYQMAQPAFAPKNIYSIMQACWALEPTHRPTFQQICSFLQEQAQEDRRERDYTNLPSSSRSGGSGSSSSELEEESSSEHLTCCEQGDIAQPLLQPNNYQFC

pIC50 | SMILES
6.30 to 7.30 | COC(=O)Cc1nc(-c2ccc(C)c(NC(=O)c3cnc4ccccn34)c2)no1 [Compound I-321]
6.30 to 7.30 | Cc1ccc(-c2noc(CC(=O)OCc3ccccc3)n2)cc1NC(=O)c1cnc2ccccn12 [Compound I-322]
≥ 7.30 | COC1(C(F)F)CC(c2nc(-c3ccc(C)c(NC(=O)c4cnc5ccccn45)c3)no2)C1 (stereo not shown) [Compound I-325]
≥ 7.30 | Cc1ccc(-c2noc(C3CCN3S(C)(=O)=O)n2)cc1NC(=O)c1cnc2ccccn12 (stereo not shown) [Compound I-331]
≥ 7.30 | Cc1ccc(-c2noc(C34COC(C)(C3)C4)n2)cc1NC(=O)c1cnc2ccccn12 [Compound I-344]
6.30 to 7.30 | Cc1ccc(-c2noc(C3CC(Oc4ccccc4)C3)n2)cc1NC(=O)c1cnc2ccccn12 (stereo not shown) [Compound I-347]
6.30 to 7.30 | Cc1ccc(-c2noc(C3CC(Oc4ccccc4)C3)n2)cc1NC(=O)c1cnc2ccccn12 (stereo not shown) [Compound I-348]
≥ 7.30 | Cc1ccc(-c2noc([C@H]3C[C@@H]3F)n2)cc1NC(=O)c1cnc2ccc(N3CCCC3)cn12 [Compound I-361]
≥ 7.30 | Cc1ccc(-c2noc([C@H]3C[C@@H]3F)n2)cc1NC(=O)c1cnc2cc(N3CCCC3)ccn12 [Compound I-365]
6.30 to 7.30 | COC12CC(c3nc(-c4ccc(C)c(NC(=O)c5cnc6ccccn56)c4)no3)(C1)C2 [Compound I-368]
≥ 7.30 | Cc1ccc(-c2noc([C@H]3C[C@@H]3F)n2)cc1NC(=O)c1cnc2cc(Br)ccn12 [Compound I-383]

Target: T3, PDGFRα (Homo sapiens, UniProt P16234)
T3 construct: purchased Millipore 14-467 (lot 26321_ACTI)
Experiment: Caliper biochemical assay, PDGFRα
Conditions: Table 6
Protocol: as §1, §2, §3, §4

T3 sequence (P16234 24-1089): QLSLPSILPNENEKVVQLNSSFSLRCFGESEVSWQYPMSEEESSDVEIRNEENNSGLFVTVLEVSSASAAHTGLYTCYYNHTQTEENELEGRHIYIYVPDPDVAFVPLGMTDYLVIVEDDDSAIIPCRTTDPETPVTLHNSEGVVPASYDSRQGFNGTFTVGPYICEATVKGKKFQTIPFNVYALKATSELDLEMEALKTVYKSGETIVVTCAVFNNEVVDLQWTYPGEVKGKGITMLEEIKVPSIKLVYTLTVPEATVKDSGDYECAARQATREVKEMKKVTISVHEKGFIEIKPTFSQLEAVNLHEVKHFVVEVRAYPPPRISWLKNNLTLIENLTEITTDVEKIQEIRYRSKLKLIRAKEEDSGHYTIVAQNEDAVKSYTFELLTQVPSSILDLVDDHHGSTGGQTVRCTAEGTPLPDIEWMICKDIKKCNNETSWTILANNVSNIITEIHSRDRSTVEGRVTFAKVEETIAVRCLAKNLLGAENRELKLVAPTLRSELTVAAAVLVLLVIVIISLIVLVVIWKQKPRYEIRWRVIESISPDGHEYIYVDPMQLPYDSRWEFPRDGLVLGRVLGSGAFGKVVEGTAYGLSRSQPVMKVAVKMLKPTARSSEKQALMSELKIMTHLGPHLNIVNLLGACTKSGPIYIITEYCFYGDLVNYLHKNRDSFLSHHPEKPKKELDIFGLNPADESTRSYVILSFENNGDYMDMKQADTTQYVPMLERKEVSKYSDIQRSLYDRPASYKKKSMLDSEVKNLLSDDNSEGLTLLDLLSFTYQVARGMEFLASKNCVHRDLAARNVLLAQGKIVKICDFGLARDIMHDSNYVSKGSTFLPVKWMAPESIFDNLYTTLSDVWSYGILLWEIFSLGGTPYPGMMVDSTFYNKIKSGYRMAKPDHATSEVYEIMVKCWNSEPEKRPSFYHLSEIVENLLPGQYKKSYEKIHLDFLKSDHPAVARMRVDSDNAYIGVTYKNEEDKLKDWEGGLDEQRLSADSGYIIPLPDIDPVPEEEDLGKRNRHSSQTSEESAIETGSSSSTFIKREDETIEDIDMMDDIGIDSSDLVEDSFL

pIC50 | SMILES
5.30 to 6.30 | COC(=O)Cc1nc(-c2ccc(C)c(NC(=O)c3cnc4ccccn34)c2)no1 [Compound I-321]
4.52 to 5.30 | Cc1ccc(-c2noc(CC(=O)OCc3ccccc3)n2)cc1NC(=O)c1cnc2ccccn12 [Compound I-322]
6.30 to 7.30 | COC1(C(F)F)CC(c2nc(-c3ccc(C)c(NC(=O)c4cnc5ccccn45)c3)no2)C1 (stereo not shown) [Compound I-325]
6.30 to 7.30 | Cc1ccc(-c2noc(C3CCN3S(C)(=O)=O)n2)cc1NC(=O)c1cnc2ccccn12 (stereo not shown) [Compound I-331]
5.30 to 6.30 | Cc1ccc(-c2noc(C34COC(C)(C3)C4)n2)cc1NC(=O)c1cnc2ccccn12 [Compound I-344]
5.30 to 6.30 | Cc1ccc(-c2noc(C3CC(Oc4ccccc4)C3)n2)cc1NC(=O)c1cnc2ccccn12 (stereo not shown) [Compound I-347]
5.30 to 6.30 | Cc1ccc(-c2noc(C3CC(Oc4ccccc4)C3)n2)cc1NC(=O)c1cnc2ccccn12 (stereo not shown) [Compound I-348]
6.30 to 7.30 | Cc1ccc(-c2noc([C@H]3C[C@@H]3F)n2)cc1NC(=O)c1cnc2ccc(N3CCCC3)cn12 [Compound I-361]
≥ 7.30 | Cc1ccc(-c2noc([C@H]3C[C@@H]3F)n2)cc1NC(=O)c1cnc2cc(N3CCCC3)ccn12 [Compound I-365]
6.30 to 7.30 | COC12CC(c3nc(-c4ccc(C)c(NC(=O)c5cnc6ccccn56)c4)no3)(C1)C2 [Compound I-368]
6.30 to 7.30 | Cc1ccc(-c2noc([C@H]3C[C@@H]3F)n2)cc1NC(=O)c1cnc2cc(Br)ccn12 [Compound I-383]

Target: T4, BCRP (BCRP-MDCKII monolayer) (Homo sapiens, UniProt Q9UNQ0)
T4 construct: host or cells: MDCKII (canine kidney) cells
T4 sequence (Q9UNQ0 1-655): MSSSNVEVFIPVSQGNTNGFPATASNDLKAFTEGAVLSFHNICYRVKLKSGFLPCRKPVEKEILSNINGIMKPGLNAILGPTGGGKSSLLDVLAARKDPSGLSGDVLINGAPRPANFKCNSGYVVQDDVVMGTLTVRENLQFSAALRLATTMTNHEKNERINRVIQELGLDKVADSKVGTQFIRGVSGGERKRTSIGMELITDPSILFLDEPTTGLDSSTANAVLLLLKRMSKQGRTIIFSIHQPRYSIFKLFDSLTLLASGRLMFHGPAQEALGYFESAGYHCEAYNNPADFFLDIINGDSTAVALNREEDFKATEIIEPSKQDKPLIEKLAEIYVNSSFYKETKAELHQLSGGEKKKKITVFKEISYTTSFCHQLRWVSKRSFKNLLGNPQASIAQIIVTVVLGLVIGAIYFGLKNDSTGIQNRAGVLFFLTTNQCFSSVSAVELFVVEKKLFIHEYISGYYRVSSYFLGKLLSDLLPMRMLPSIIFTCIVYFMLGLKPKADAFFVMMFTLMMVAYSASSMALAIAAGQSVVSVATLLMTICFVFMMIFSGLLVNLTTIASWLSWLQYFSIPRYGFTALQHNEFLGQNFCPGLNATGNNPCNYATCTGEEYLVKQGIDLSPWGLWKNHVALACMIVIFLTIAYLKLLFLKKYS
Experiment: MDCKII-BCRP bidirectional transport assay
Format: in vitro ADME
Conditions: not given
Summary of the method: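 Efflux ratios were derived from Papp values, alongside recovery, with compounds quantified by LC-MS/MS. Both directions were tested in duplicate across BCRP-MDCKII monolayers used on days 12–15. Incubation ran 120 min at 37° C, 5% CO2, after a 15 min preincubation in assay buffer.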

MDCK-BCRP: Efflux Ratio | SMILES
3.4 | COC(=O)Cc1nc(-c2ccc(C)c(NC(=O)c3cnc4ccccn34)c2)no1 [Compound I-321]
2.7 | Cc1ccc(-c2noc(CC(=O)OCc3ccccc3)n2)cc1NC(=O)c1cnc2ccccn12 [Compound I-322]
1.39 | COC1(C(F)F)CC(c2nc(-c3ccc(C)c(NC(=O)c4cnc5ccccn45)c3)no2)C1 (stereo not shown) [Compound I-325]
1.48 | Cc1ccc(-c2noc(C34COC(C)(C3)C4)n2)cc1NC(=O)c1cnc2ccccn12 [Compound I-344]
1.28 | Cc1ccc(-c2noc(C3CC(Oc4ccccc4)C3)n2)cc1NC(=O)c1cnc2ccccn12 (stereo not shown) [Compound I-347]
2.37 | Cc1ccc(-c2noc(C3CC(Oc4ccccc4)C3)n2)cc1NC(=O)c1cnc2ccccn12 (stereo not shown) [Compound I-348]
0.54 | Cc1ccc(-c2noc([C@H]3C[C@@H]3F)n2)cc1NC(=O)c1cnc2ccc(N3CCCC3)cn12 [Compound I-361]
1.21 | Cc1ccc(-c2noc([C@H]3C[C@@H]3F)n2)cc1NC(=O)c1cnc2cc(N3CCCC3)ccn12 [Compound I-365]
1.09 | COC12CC(c3nc(-c4ccc(C)c(NC(=O)c5cnc6ccccn56)c4)no3)(C1)C2 [Compound I-368]
1.74 | Cc1ccc(-c2noc([C@H]3C[C@@H]3F)n2)cc1NC(=O)c1cnc2cc(Br)ccn12 [Compound I-383]

Same assay, conditions: apical to basolateral

MDCK-BCRP: Papp A-B | SMILES
4.73 10^−6 cm/s | COC(=O)Cc1nc(-c2ccc(C)c(NC(=O)c3cnc4ccccn34)c2)no1 [Compound I-321]
1.38 10^−6 cm/s | Cc1ccc(-c2noc(CC(=O)OCc3ccccc3)n2)cc1NC(=O)c1cnc2ccccn12 [Compound I-322]
11.4 10^−6 cm/s | COC1(C(F)F)CC(c2nc(-c3ccc(C)c(NC(=O)c4cnc5ccccn45)c3)no2)C1 (stereo not shown) [Compound I-325]
11.5 10^−6 cm/s | Cc1ccc(-c2noc(C34COC(C)(C3)C4)n2)cc1NC(=O)c1cnc2ccccn12 [Compound I-344]
0.17 10^−6 cm/s | Cc1ccc(-c2noc(C3CC(Oc4ccccc4)C3)n2)cc1NC(=O)c1cnc2ccccn12 (stereo not shown) [Compound I-347]
0.13 10^−6 cm/s | Cc1ccc(-c2noc(C3CC(Oc4ccccc4)C3)n2)cc1NC(=O)c1cnc2ccccn12 (stereo not shown) [Compound I-348]
1.1 10^−6 cm/s | Cc1ccc(-c2noc([C@H]3C[C@@H]3F)n2)cc1NC(=O)c1cnc2ccc(N3CCCC3)cn12 [Compound I-361]
4.73 10^−6 cm/s | Cc1ccc(-c2noc([C@H]3C[C@@H]3F)n2)cc1NC(=O)c1cnc2cc(N3CCCC3)ccn12 [Compound I-365]
15 10^−6 cm/s | COC12CC(c3nc(-c4ccc(C)c(NC(=O)c5cnc6ccccn56)c4)no3)(C1)C2 [Compound I-368]
7.55 10^−6 cm/s | Cc1ccc(-c2noc([C@H]3C[C@@H]3F)n2)cc1NC(=O)c1cnc2cc(Br)ccn12 [Compound I-383]

Test system: not listed separately
Experiment: Kinetic solubility assay
Format: physicochemical
Conditions: kinetic solubility, 50 mM PB (pH 7.4), shaken 24 hours at RT
Summary of the method: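 Concentration in the filtrate was determined by UPLC-UV or HPLC-UV with a standard curve. Before that, compound (10 mM DMSO stock) in 50 mM PB at pH 7.4 was agitated 24 h at room temperature, then PTFE-filtered with centrifugation.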

SMILES | Solubility (μM)
COC(=O)Cc1nc(-c2ccc(C)c(NC(=O)c3cnc4ccccn34)c2)no1 [Compound I-321] | **** (a solubility less than or equal to 2 μM)
Cc1ccc(-c2noc(CC(=O)OCc3ccccc3)n2)cc1NC(=O)c1cnc2ccccn12 [Compound I-322] | **** (a solubility less than or equal to 2 μM)
COC1(C(F)F)CC(c2nc(-c3ccc(C)c(NC(=O)c4cnc5ccccn45)c3)no2)C1 (stereo not shown) [Compound I-325] | **** (a solubility less than or equal to 2 μM)
Cc1ccc(-c2noc(C3CCN3S(C)(=O)=O)n2)cc1NC(=O)c1cnc2ccccn12 (stereo not shown) [Compound I-331] | ** (a solubility greater than 10 μM and less than or equal to 50 μM)
Cc1ccc(-c2noc(C34COC(C)(C3)C4)n2)cc1NC(=O)c1cnc2ccccn12 [Compound I-344] | *** (a solubility greater than 2 μM and less than or equal to 10 μM)
Cc1ccc(-c2noc(C3CC(Oc4ccccc4)C3)n2)cc1NC(=O)c1cnc2ccccn12 (stereo not shown) [Compound I-347] | **** (a solubility less than or equal to 2 μM)
Cc1ccc(-c2noc(C3CC(Oc4ccccc4)C3)n2)cc1NC(=O)c1cnc2ccccn12 (stereo not shown) [Compound I-348] | *** (a solubility greater than 2 μM and less than or equal to 10 μM)
Cc1ccc(-c2noc([C@H]3C[C@@H]3F)n2)cc1NC(=O)c1cnc2ccc(N3CCCC3)cn12 [Compound I-361] | **** (a solubility less than or equal to 2 μM)
Cc1ccc(-c2noc([C@H]3C[C@@H]3F)n2)cc1NC(=O)c1cnc2cc(N3CCCC3)ccn12 [Compound I-365] | *** (a solubility greater than 2 μM and less than or equal to 10 μM)
COC12CC(c3nc(-c4ccc(C)c(NC(=O)c5cnc6ccccn56)c4)no3)(C1)C2 [Compound I-368] | **** (a solubility less than or equal to 2 μM)
Cc1ccc(-c2noc([C@H]3C[C@@H]3F)n2)cc1NC(=O)c1cnc2cc(Br)ccn12 [Compound I-383] | **** (a solubility less than or equal to 2 μM)
